From paper PMC7778552, “A Double-Edged Sword: The Anti-Cancer Effects of Emodin by Inhibiting the Redox-Protective Protein MTH1 and Augmenting ROS in NSCLC” (Journal of Cancer, 2021) come the findings set out here.

This assay has as its target T1, MutT homolog 1 (MTH1) (Homo sapiens, UniProt P36639).
T1 construct: gene NUDT1; N-terminal His-tagged, expressed in E. coli BL21-codon plus
Description: SPR with immobilized purified MTH1 (amine coupling). It is filed as binding.

As to `Cc1cc(O)c2c(c1)C(=O)c1cc(O)cc(O)c1C2=O` [emodin, 1,3,8-trihydroxy-6-methylanthraquinone], the affinity, expressed as Kd, was 22.2 ± 0.68 µM.
